Results as given in patent US7419997B2, “Tetrahydrocarbazole derivatives and their pharmaceutical use” (SmithKline Beecham Corporation, priority 2003, dated 2008).

Tested on: episomal HPV16 DNA in W12-20850 cells
Test: W-12 cellular assay (episomal HPV-16 DNA, hybrid capture)
Type: cell-based, HPV16 (human papillomavirus)
Details: Human papillomavirus 16, 96 h, four days incubation, episomal HPV-16 DNA quantified by hybrid capture, inhibition relative to untreated control cells
Experimental: Compounds of the current invention are believed useful in the treatment and/or prophylaxis of conditions and diseases associated with HPV infection. Activity mediated through HPV was determined using the following W-12 cellular assay.
The W12 cell line used contains HPV16 DNA and was derived from a low-grade cervical dysplasia tissue by Margaret Stanley and subsequently clonally selected by Paul Lambert (University of Wisconsin). One of these clones, W12-20850, contains 1000 copies of episomal HPV16 DNA and was used in the cell-based assay. W12-20850 cells were routinely cultured with a gamma-irradiated (6000 rads) feeder layer of 3T3 cells. Assays, however, were run in the absence of a 3T3 feeder layer. W12-20850 and 3T3 cells were routinely split when they were sub-confluent. W12-20850 were grown in W12 Medium which is constituted of 25% DMEM (Gibco BRL, Cat # 12430-047), 75% F12 Media (Gibco BRL, Cat # 11765-021) and 2.5% FBS. The additives include […] Adenine (Sigma, Cat # A-9795), 0.4 mg/ml Hydrocortisone (Calbiochem, Cat # 386698), […] Bovine Insulin (Sigma, Cat # I-1882), 8.4 ng/ml cholera toxin (Fluka, Cat # 26694) and 10 ng/ml EGF (Invitrogen, Cat # 13247-051). 3T3 cells were grown in DMEM containing 10% FBS. Cell lines were incubated at 37° C., in the presence of 5% CO2.
For the assay, W12-20850 cells were seeded into a 96 well plate-containing compound. Plates were incubated at 37° C. in the presence of 5% CO2, for four days. On the fourth day, cells were lysed and the amount of episomal HPV-16 DNA was quantified using a non-radioactive hybrid capture technique with HPV-16 specific capture and detection probes. The percent inhibition relative to untreated control cells was then determined.
The hybrid capture assay is run in a 96 well plate format. Hybridization plates (Nunc Maxisorb Cat # 450320) were coated with a mixture of capture probe and ReactiBind solution for at least 4 hours and then washed with 0.2)(SSC, 0.05% Tween20 (SSCT) prior to blocking with 150 μl/well of 0.2 N NaOH, 1% Igepal, 10 mg/ml hsDNA for 6-8 hours. The hybridization was carried out by mixing 271 μl of lysed cells with 45 μl of denatured detection probe in 6M guanidine isothiocyanate. To prevent evaporation, 50 μl of mineral oil was added to each well. The plate was then heated to 90° C. for 6.5 minutes and the hybridization continued at 42° C. overnight. Assay plates were washed 6 times with SSC/T. Anti-digoxigenin HRP-conjugated Ab (Boehringer Mannheim 1207733, 1:5000) was incubated in the wells for 30 min at room temperature and washed with PBS/0.05% Tween-20. SuperSignal LBA substrate (Pierce Cat # 37070) was added, and chemiluminescence was measured using Wallac 1420 Victor plate reader.

| Structure (SMILES) | IC50 |
| --- | --- |
| O=C(Nc1ccccc1)NC1CCCc2c1[nH]c1ccc(Br)cc21 (centres unmarked) [Example 9, N-(6-Bromo-2,3,4,9-tetrahydro-1H-carbazol-1-yl)-N′-phenylurea] | 548 nM |
| COc1ccc(NC(=O)NC2CCCc3c2[nH]c2ccc(Br)cc32)cc1 (centres unmarked) [Example 10, N-(6-Bromo-2,3,4,9-tetrahydro-1H-carbazol-1-yl)-N′-(4-methoxyphenyl)urea] | 24000 nM |
| COc1ccc(NC(=O)NC2CCCc3c2[nH]c2ccc(Br)cc32)c(C)c1 (centres unmarked) [Example 11, N-(6-Bromo-2,3,4,9-tetrahydro-1H-carbazol-1-yl)-N′-(4-methoxy-2-methylphenyl)urea] | > 1000 nM |
| COc1ccc(NC(=O)NC2CCCc3c2[nH]c2ccc(Br)cc32)cc1Cl (centres unmarked) [Example 12, N-(6-Bromo-2,3,4,9-tetrahydro-1H-carbazol-1-yl)-N′-(3-chloro-4-methoxyphenyl)urea] | > 10000 nM |
| CN(C)c1ccc(NC(=O)NC2CCCc3c2[nH]c2ccc(Br)cc32)cc1 (centres unmarked) [Example 13, N-(6-Bromo-2,3,4,9-tetrahydro-1H-carbazol-1-yl)-N′-[4-(dimethylamino)phenyl]urea] | 237 nM |
| O=C(NC1CCCc2c1[nH]c1ccc(Br)cc21)c1ccccc1 (centres unmarked) [Example 14A, N-(6-Bromo-2,3,4,9-tetrahydro-1H-carbazol-1-yl)benzamide] | 32 nM |
| O=C(N[C@@H]1CCCc2c1[nH]c1ccc(Br)cc21)c1ccccc1 [Example 14B, N-[(1R)-6-bromo-2,3,4,9-tetrahydro-1H-carbazol-1-yl]benzamide] | 10 nM |
| O=C(N[C@H]1CCCc2c1[nH]c1ccc(Br)cc21)c1ccccc1 [Example 14C, N-[(1S)-6-bromo-2,3,4,9-tetrahydro-1H-carbazol-1-yl]benzamide] | 5000 nM |
| O=C(Cc1ccccc1)NC1CCCc2c1[nH]c1ccc(Br)cc21 (centres unmarked) [Example 15, N-(6-Bromo-2,3,4,9-tetrahydro-1H-carbazol-1-yl)-2-phenylacetamide] | 580 nM |
| O=C(CCc1ccccc1)NC1CCCc2c1[nH]c1ccc(Br)cc21 (centres unmarked) [Example 16, N-(6-Bromo-2,3,4,9-tetrahydro-1H-carbazol-1-yl)-3-phenylpropanamide] | 1200 nM |
| O=C(/C=C/c1ccccc1)NC1CCCc2c1[nH]c1ccc(Br)cc21 (centres unmarked) [Example 17, N-(6-Bromo-2,3,4,9-tetrahydro-1H-carbazol-1-yl)-3-phenylprop-2-enamide] | 318 nM |
| O=C(NC1CCCc2c1[nH]c1ccc(Br)cc21)OCc1ccccc1 (centres unmarked) [Example 18, Benzyl 6-bromo-2,3,4,9-tetrahydro-1H-carbazol-1-ylcarbamate] | 44 nM |
| O=C(NC1CCCc2c1[nH]c1ccc(Br)cc21)c1c(Cl)cccc1Cl (centres unmarked) [Example 19, N-(6-Bromo-2,3,4,9-tetrahydro-1H-carbazol-1-yl)-2,6-dichlorobenzamide] | 5800 nM |
| O=C(NC1CCCc2c1[nH]c1ccc(Br)cc21)c1ccc(F)cc1 (centres unmarked) [Example 20, N-(6-Bromo-2,3,4,9-tetrahydro-1H-carbazol-1-yl)-4-fluorobenzamide] | 20 nM |
| COc1ccc(C(=O)NC2CCCc3c2[nH]c2ccc(Br)cc32)cc1 (centres unmarked) [Example 21, N-(6-Bromo-2,3,4,9-tetra hydro-1H-carbazol-1-yl)-4-methoxybenzamide] | 22 nM |
| O=C(NC1CCCc2c1[nH]c1ccc(Br)cc21)c1ccc([N+](=O)[O-])cc1 (centres unmarked) [Example 22, N-(6-Bromo-2,3,4,9-tetrahydro-1H-carbazol-1-yl)-4-nitrobenzamide] | 45 nM |
| O=C(NC1CCCc2c1[nH]c1ccc(Br)cc21)c1ccc(Cl)cc1 (centres unmarked) [Example 23, N-(6-Bromo-2,3,4,9-tetrahydro-1H-carbazol-1-yl)4-chlorobenzamide] | 17 nM |
| Cc1ccc(C(=O)NC2CCCc3c2[nH]c2ccc(Br)cc32)cc1 (centres unmarked) [Example 24, N-(6-Bromo-2,3,4,9-tetrahydro-1H-carbazol-1-yl)-4-methylbenzamide] | 8 nM |
| O=C(NC1CCCc2c1[nH]c1ccc(Br)cc21)c1ccc(C(F)(F)F)cc1 (centres unmarked) [Example 25, N-(6-Bromo-2,3,4,9-tetrahydro-1H-carbazol-1-yl)-4-(trifluoromethyl)benzamide] | 58 nM |

| Structure (SMILES) | IC50 |
| --- | --- |
| O=C(NC1CCCc2c1[nH]c1ccc(Br)cc21)c1cccc(F)c1 (centres unmarked) [Example 26, N-(6-Bromo-2,3,4,9-tetrahydro-1H-carbazol-1-yl)-3-fluorobenzamide] | 14 nM |
| COc1cccc(C(=O)NC2CCCc3c2[nH]c2ccc(Br)cc32)c1 (centres unmarked) [Example 27, N-(6-Bromo-2,3,4,9-tetrahydro-1H-carbazol-1-yl)-3-methoxybenzamide] | 28 nM |
| Cc1cccc(C(=O)NC2CCCc3c2[nH]c2ccc(Br)cc32)c1 (centres unmarked) [Example 28, N-(6-Bromo-2,3,4,9-tetrahydro-1H-carbazol-1-yl)-3-methylbenzamide] | 23 nM |
| O=C(NC1CCCc2c1[nH]c1ccc(Br)cc21)c1ccccc1F (centres unmarked) [Example 29, N-(6-Bromo-2,3,4,9-tetrahydro-1H-carbazol-1-yl)-2-fluorobenzamide] | 9 nM |
| COc1ccccc1C(=O)NC1CCCc2c1[nH]c1ccc(Br)cc21 (centres unmarked) [Example 30, N-(6-Bromo-2,3,4,9-tetrahydro-1H-carbazol-1-yl)-2-methoxybenzamide] | > 10000 nM |
| O=C(NC1CCCc2c1[nH]c1ccc(Br)cc21)c1ccccc1[N+](=O)[O-] (centres unmarked) [Example 31, N-(6-Bromo-2,3,4,9-tetrahydro-1H-carbazol-1-yl)-2-nitrobenzamide] | > 7300 nM |
| O=C(NC1CCCc2c1[nH]c1ccc(Br)cc21)c1ccccc1Cl (centres unmarked) [Example 32, N-(6-Bromo-2,3,4,9-tetrahydro-1H-carbazol-1-yl)-2-chlorobenzamide] | 1400 nM |
| Cc1ccccc1C(=O)NC1CCCc2c1[nH]c1ccc(Br)cc21 (centres unmarked) [Example 33, N-(6-Bromo-2,3,4,9-tetrahydro-1H-carbazol-1-yl)-2-methylbenzamide] | 497 nM |
| O=C(NC1CCCc2c1[nH]c1ccccc21)c1ccccc1 (centres unmarked) [Example 34, N-(2,3,4,9-Tetrahydro-1H-carbazol-1-yl)benzamide] | > 10000 nM |
| Cc1ccc2[nH]c3c(c2c1)CCCC3NC(=O)c1ccccc1 (centres unmarked) [Example 35, N-(6-Methyl-2,3,4,9-tetrahydro-1H-carbazol-1-yl)benzamide] | 184 nM |
| O=C(NC1CCCc2c1[nH]c1ccc(Cl)cc21)c1ccccc1 (centres unmarked) [Example 36A, N-(6-Chloro-2,3,4,9-tetrahydro-1H-carbazol-1-yl)benzamide] | 60 nM |
| O=C(N[C@@H]1CCCc2c1[nH]c1ccc(Cl)cc21)c1ccccc1 [Example 36B, N-[(1R)-6-chloro-2,3,4,9-tetrahydro-1H-carbazol-1-yl]benzamide] | 20 nM |
| O=C(N[C@H]1CCCc2c1[nH]c1ccc(Cl)cc21)c1ccccc1 [Example 36C, N-[(1S)-6-chloro-2,3,4,9-tetrahydro-1H-carbazol-1-yl]benzamide] | > 10000 nM |
| Cc1ccc(S(=O)(=O)NC2CCCc3c2[nH]c2ccc(Br)cc32)cc1 (centres unmarked) [Example 37, N-(6-Bromo-2,3,4,9-tetrahydro-1H-carbazol-1-yl)-4-methylbenzenesulfonamide] | 24 nM |
| O=C(NC1CCCc2c1[nH]c1ccc(Br)cc21)c1ccccn1 (centres unmarked) [Example 38, N-(6-Bromo-2,3,4,9-tetrahydro-1H-carbazol-1-yl)pyridine-2-carboxamide] | < 10 nM |
| O=C(NC1CCCc2c1[nH]c1ccc(Br)cc21)c1cccnc1 (centres unmarked) [Example 39, N-(6-Bromo-2,3,4,9-tetrahydro-1H-carbazol-1-yl)nicotinamide] | 130 nM |
| O=C(NC1CCCc2c1[nH]c1ccc(Br)cc21)c1ccc(Cl)nc1 (centres unmarked) [Example 40, N-(6-Bromo-2,3,4,9-tetrahydro-1H-carbazol-1-yl)-6-chloronicotinamide] | 24 nM |
| O=C(NC1CCCc2c1[nH]c1ccc(Br)cc21)c1ccncc1 (centres unmarked) [Example 41, N-(6-Bromo-2,3,4,9-tetrahydro-1H-carbazol-1-yl)isonicotinamide] | 180 nM |
| O=C(Nc1ccccc1)NC1CCCc2c1[nH]c1ccccc21 (centres unmarked) [Example 42, N-Phenyl-N′-(2,3,4,9-tetrahydro-1H-carbazol-1-yl)urea] | > 10000 nM |
